Laboratory results taken from US20120328628A1, “ANTIBODIES TO CONFORMATIONALLY TRAPPED PROTEINS” (The Regents of the University of California, priority 2006, published 2012).

Biological target: T1, wild-type caspase-1 (Homo sapiens, UniProt P29466)
T1 construct: single site alanine mutants for each of these residues in either the p10 or p20 subunit; made in house; E. coli is printed only for caspase-4/-5 made by the caspase-1 procedure
T1 sequence (P29466 120-297 limits assumed): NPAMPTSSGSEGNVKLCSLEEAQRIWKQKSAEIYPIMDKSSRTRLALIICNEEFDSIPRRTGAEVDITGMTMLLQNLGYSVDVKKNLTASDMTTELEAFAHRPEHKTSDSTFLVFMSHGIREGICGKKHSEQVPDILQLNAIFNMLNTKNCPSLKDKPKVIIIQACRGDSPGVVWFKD
T1 sequence (P29466 317-404 limits assumed): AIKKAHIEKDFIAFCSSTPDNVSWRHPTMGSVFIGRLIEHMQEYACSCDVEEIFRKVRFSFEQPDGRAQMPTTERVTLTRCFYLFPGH
Assay: Titration of wild-type caspase-1 with z-VAD-FMK
Type: biochemical
Excerpt: To test this, wild-type caspase-1 was titrated with inhibitor and found to produce a 2-fold activation when one reaches 0.2 equivalents of z-VAD-FMK. […] If the inhibitor labeled in a non-cooperative fashion we would expect that it would reach an optimum upon addition of about 0.5 equivalents and would cause a […] activation as half of the sites are inactivated. The fact this maxima is below 0.5 equivalents and is less than […] probably reflects that labeling is cooperative too. […] Thus, we have developed a second assay for evaluating the active site coupling.

- activation of wild-type caspase-1 (0.2 equivalents of inhibitor): 2 fold
- inhibition of wild-type caspase-1 (approaching one equivalent of inhibitor): complete inhibition
Substance: z-VAD-FMK
